pIC50: −log10 of the molar value.

Usually pIC50 stands for −log10 of the IC50, conventionally taken in molar units. A lower pIC50 goes with a high IC50.

Chain of Tumour suppressor p53/oncoprotein Mdm2 (P04637 whole entry): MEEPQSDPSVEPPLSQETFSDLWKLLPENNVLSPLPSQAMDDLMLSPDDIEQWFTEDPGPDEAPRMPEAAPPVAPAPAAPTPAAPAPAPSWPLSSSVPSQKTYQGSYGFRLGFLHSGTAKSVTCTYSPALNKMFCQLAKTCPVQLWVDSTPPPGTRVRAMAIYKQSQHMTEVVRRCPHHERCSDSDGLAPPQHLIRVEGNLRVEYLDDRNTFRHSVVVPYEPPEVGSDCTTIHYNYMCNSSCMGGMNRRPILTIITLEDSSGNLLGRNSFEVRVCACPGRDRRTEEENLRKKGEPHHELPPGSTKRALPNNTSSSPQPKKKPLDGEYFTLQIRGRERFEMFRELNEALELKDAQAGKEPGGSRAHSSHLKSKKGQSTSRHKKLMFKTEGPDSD
Chain of Tumour suppressor p53/oncoprotein Mdm2 (Q00987 whole entry): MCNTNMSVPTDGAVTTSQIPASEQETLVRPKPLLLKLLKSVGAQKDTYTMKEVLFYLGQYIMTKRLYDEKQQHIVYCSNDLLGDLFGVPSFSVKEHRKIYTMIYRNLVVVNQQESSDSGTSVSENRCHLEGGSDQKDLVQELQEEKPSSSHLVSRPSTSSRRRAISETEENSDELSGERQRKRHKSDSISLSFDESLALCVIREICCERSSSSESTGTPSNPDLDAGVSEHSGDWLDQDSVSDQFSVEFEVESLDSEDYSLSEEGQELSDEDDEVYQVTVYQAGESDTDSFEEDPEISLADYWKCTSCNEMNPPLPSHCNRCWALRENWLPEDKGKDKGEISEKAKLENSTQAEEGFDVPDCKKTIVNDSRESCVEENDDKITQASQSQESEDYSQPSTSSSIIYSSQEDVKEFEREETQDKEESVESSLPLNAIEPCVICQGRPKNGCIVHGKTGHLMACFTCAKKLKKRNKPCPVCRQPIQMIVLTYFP

The first assay concerns the target Tumour suppressor p53/oncoprotein Mdm2 (Homo sapiens, UniProt Q00987). Kind of assay: Inhibition of human His-tagged p53/GST-tagged MDM2 interaction after 60 mins by chemiluminescence assay. It is filed as protein assay.
With `CC(C)C1=C(C(=O)N2CCC[C@H]2C(=O)N2CCOCC2)SC2=N[C@@](C)(c3ccc(Cl)cc3)[C@@H](c3ccc(Cl)cc3)N21`, the pIC50 is 7.59.
The same measure, in the same setting: to `CC(C)C1=C(C(=O)N2CCNC(=O)C2)SC2=N[C@@](C)(c3ccc(Cl)cc3)[C@@H](c3ccc(Cl)cc3)N21` belongs 7.04; to `CC(C)C1=C(C(=O)N2CCC[C@H]2C(=O)N2CCNC(=O)C2)SC2=N[C@@](C)(c3ccc(Cl)cc3)[C@@H](c3ccc(Cl)cc3)N21`, 7.10; to `CC(C)C1=C(C(=O)N2CNC(=O)C2)SC2=NC(C)(c3ccc(Cl)cc3)C(c3ccc(Cl)cc3)N21` (racemic), 6.03.
Consider `CC(=O)N1CCN(C(=O)[C@@H]2CCCN2C(=O)C2=C(C(C)C)N3C(=N[C@@](C)(c4ccc(Cl)cc4)[C@H]3c3ccc(Cl)cc3)S2)CC1`, for which the pIC50 was 7.18.
The same measure, in the same setting: for `CC(C)C1=C(C(=O)N(C)C)SC2=N[C@@](C)(c3ccc(Cl)cc3)[C@@H](c3ccc(Cl)cc3)N21` the value was 7.59; for `CNC(=O)C1=C(C(C)C)N2C(=NC(C)(c3ccc(Cl)cc3)C2c2ccc(Cl)cc2)S1` (racemic), 5.96.
The compound `CC(C)C1=C(C(=O)N2CCC[C@H]2C(=O)N2CCN(C)CC2)SC2=N[C@@](C)(c3ccc(Cl)cc3)[C@@H](c3ccc(Cl)cc3)N21` showed a pIC50 of 7.64.
Same read-out and setting: for `CC(C)C1=C(C(=O)N2CCC[C@H]2C(=O)N2C[C@@H](C)N[C@@H](C)C2)SC2=N[C@@](C)(c3ccc(Cl)cc3)[C@@H](c3ccc(Cl)cc3)N21` the value was 7.43.
`CC(C)C1=C(C(N)=O)SC2=NC(C)(c3ccc(Cl)cc3)C(c3ccc(Cl)cc3)N21` (racemic) had a pIC50 of 6.11.
On the same count and under the same terms, for `CC(C)C1=C(C(=O)N2CCCC2)SC2=NC(C)(c3ccc(Cl)cc3)C(c3ccc(Cl)cc3)N21` (racemic) the value was 6.70; for `COCCN(C)C(=O)[C@@H]1CCCN1C(=O)C1=C(C(C)C)N2C(=N[C@@](C)(c3ccc(Cl)cc3)[C@H]2c2ccc(Cl)cc2)S1`, 7.34.
Same read-out and setting: to `CC(C)C1=C(C(=O)N(C)C)SC2=NC(C)(c3ccc(Cl)cc3)C(c3ccc(Cl)cc3)N21` (racemic) belongs 7.38; to `CC(C)C1=C(C(=O)N2CCNC(=O)C2)SC2=NC(C)(c3ccc(Cl)cc3)C(c3ccc(Cl)cc3)N21` (racemic), 6.39.
The same measure, in the same setting: to `CC(C)C1=C(C(=O)N2CCNC(=O)C2)SC2=N[C@](C)(c3ccc(Cl)cc3)[C@H](c3ccc(Cl)cc3)N21` belongs 5.82; to `CC(C)C1=C(C(=O)N2CCCC[C@H]2C(=O)N(C)C)SC2=NC(C)(c3ccc(Cl)cc3)C(c3ccc(Cl)cc3)N21` (mixture of isomers), 6.77.

The target of a further assay is E3 ubiquitin-protein ligase Mdm2 (Homo sapiens, UniProt Q00987, L33E). In words: Inhibition of human His-tagged p53 (1 to 132 amino acid residues)/GST-tagged MDM2 L33E mutant (25 to 108 amino acid residues) interaction by HTRF assay. (In general: TR-FRET usually uses a lanthanide donor and a delayed reading to cut background.)
Chain of E3 ubiquitin-protein ligase Mdm2 (Q00987 whole entry L33E, the tested form may be a part): as the sequence (Q00987 whole entry) above, with L33E counted along it
`CC(C)C1=C(C(=O)N2CC[C@H]2C(=O)N(C)C)SC2=N[C@@](C)(c3ccc(Cl)cc3)[C@@H](c3ccc(Cl)cc3)N21` gave a pIC50 of 6.85.

The values above are taken from ChEMBL document CHEMBL2311336 (Bioorg Med Chem Lett, 2013).
